Four compounds from ChEMBL document CHEMBL3098062, “Influenza RNA-Dependent RNA Polymerase (RdRp) Inhibitors: Potential New Therapy for Influenza Treatment” (ACS Med Chem Lett, 2013) can be followed below.

Test [1] concerns Influenza B virus. Briefly: Antiviral activity against Influenza B virus Lee/40 infected in human bronchial/tracheal epithelial cells after 5 days by fluorescence assay. The test is classed as functional, organism-based. The settings on record: B/Lee/1940, Epithelial cell, Trachea, 120 h.
In test [2] the test system is Influenza A virus. Briefly: Antiviral activity against Influenza A virus PC/1/73 infected in human bronchial/tracheal epithelial cells after 5 days by fluorescence assay. The following applies: PC/1/73, Epithelial cell, Trachea, 120 h. It counts as functional, organism-based.

SMILES strings stand for the structures.

Broadly, the EC50 is the midpoint of the concentration-response curve. High values mean a need for much substance, low ones an effect from little substance. As to `Nc1nc(N)c2ncc([C@@H]3O[C@H](CO)[C@@H](O)[C@H]3F)n2n1`, the figures for the concentration giving a half-maximal response (EC50) in test [1] and in test [2] were 51 µM and 21 µM, respectively.
Taken in the same sequence, the figures for `Nc1ncnn2c([C@@H]3O[C@H](CO)[C@@H](O)[C@H]3F)cnc12` were 0.9 µM and 0.9 µM.
As to `Nc1nc(F)nn2c([C@@H]3O[C@H](CO)[C@@H](O)[C@H]3F)cnc12`, the EC50 in test [1] and in test [2] was over 100 µM throughout.
For the compound `CCOc1nc(N)nn2c([C@@H]3O[C@H](CO)[C@@H](O)[C@H]3F)cnc12`, the EC50 in test [1] and in test [2] was over 200 µM in each case.
